# Laboratory results published in the supplement of paper PMC10307832.
# Compound: NCC(=O)Nc1ccc(-n2nc(C(F)(F)F)cc2-c2ccc3c(ccc4ccccc43)c2)cc1 + Nc1ncn([C@H]2C[C@H](O)[C@@H](CO)O2)c(=O)n1 [Decitabine] (partner 2 µM)
# Test: relative viability (nuclei count vs DMSO), 5 days (fraction); higher = more cells survive
# Details: first compound 0.02 µM
# Procedure, shortened: (§1)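 Lung cancer cell lines were seeded in 1536-well plates and dosed by pin tool the next day, with either a single drug or a fixed anchor-drug dose combined with five library-drug doses (not always all listed) spaced in √10 steps. Five days later, one step fixed the cells and stained their nuclei (final 0.05% Triton X-100, 1% formaldehyde, 1 ug/ml Hoechst), and nuclei were counted on 4× images. Relative viability is the nuclei count in treated wells divided by the count in vehicle wells, and each value is the median of duplicate plates.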
row,Cell Line,relative viability
1,PC-3 [JPC-3],0.818

# Same assay, conditions: first compound 0.06325 µM
row,Cell Line,relative viability
1,NCI-H1944,0.43
2,NCI-H1975,0.39
3,RERF-LC-KJ,0.791
4,ABC-1,1.02
5,NCI-H358,0.211
6,NCI-H650,0.295
7,PC-3 [JPC-3],0.854

# Same assay, conditions: first compound 0.2 µM
row,Cell Line,relative viability
1,NCI-H1944,0.436
2,NCI-H1975,0.43
3,RERF-LC-KJ,0.673
4,NCI-H358,0.224
5,NCI-H650,0.443
6,PC-3 [JPC-3],0.768

# Same assay, conditions: first compound 0.6325 µM
row,Cell Line,relative viability
1,NCI-H1944,0.392
2,NCI-H1975,0.404
3,RERF-LC-KJ,0.78
4,ABC-1,0.954
5,NCI-H358,0.206
6,NCI-H650,0.315
7,PC-3 [JPC-3],0.863

# Same assay, conditions: first compound 2 µM
row,Cell Line,relative viability
1,NCI-H1944,0.44
2,NCI-H1975,0.464
3,RERF-LC-KJ,0.641
4,ABC-1,1.13
5,NCI-H358,0.217
6,NCI-H650,0.367
7,PC-3 [JPC-3],0.777

# Compound: NCC(=O)Nc1ccc(-n2nc(C(F)(F)F)cc2-c2ccc3c(ccc4ccccc43)c2)cc1 + CS(=O)(=O)N1CCN(Cc2cc3nc(-c4cccc5[nH]ncc45)nc(N4CCOCC4)c3s2)CC1 [Pictilisib] (partner 1 µM)
# Test: as above
# Details: first compound 0.02 µM
# Procedure, shortened: as §1
row,Cell Line,relative viability
1,NCI-H1944,0.349
2,NCI-H1975,0.273
3,RERF-LC-KJ,0.568
4,ABC-1,0.808
5,NCI-H358,0.43
6,NCI-H650,0.843
7,PC-3 [JPC-3],0.645

# Same assay, conditions: first compound 0.06325 µM
row,Cell Line,relative viability
1,NCI-H1944,0.359
2,NCI-H1975,0.307
3,RERF-LC-KJ,0.62
4,ABC-1,0.81
5,NCI-H358,0.309
6,NCI-H650,0.913
7,PC-3 [JPC-3],0.855

# Same assay, conditions: first compound 0.2 µM
row,Cell Line,relative viability
1,NCI-H1944,0.326
2,NCI-H1975,0.292
3,RERF-LC-KJ,0.663
4,NCI-H358,0.322
5,NCI-H650,1.05
6,PC-3 [JPC-3],0.739

# Same assay, conditions: first compound 0.6325 µM
row,Cell Line,relative viability
1,NCI-H1944,0.35
2,NCI-H1975,0.335
3,RERF-LC-KJ,0.66
4,ABC-1,0.745
5,NCI-H358,0.383
6,NCI-H650,0.782
7,PC-3 [JPC-3],0.745

# Same assay, conditions: first compound 2 µM
row,Cell Line,relative viability
1,NCI-H1944,0.331
2,NCI-H1975,0.307
3,RERF-LC-KJ,0.517
4,ABC-1,0.563
5,NCI-H358,0.341
6,NCI-H650,0.948
7,PC-3 [JPC-3],0.88
